Measured values published in patent publication US20230348418A1, “ISOINDOLINONE COMPOUNDS” (Monte Rosa Therapeutics, Inc., priority 2021, published 2023).
Read-outs that look alike come from different tables or passages of the source.

Legend:
[1] = target: T1, Full length wild-type cereblon CRBN (Homo sapiens, UniProt Q96SW2); assay: Fluorescence polarization (FP) assay, cereblon binding
T1 construct: Full length wild-type cereblon CRBN (80.0 nM, 10 μL) was incubated in assay buffer
Outline: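 Full-length wild-type human CRBN (80.0 nM) was preincubated with compound for 30 min at room temperature in 20 mM HEPES pH 8.0, 150 NaCl, 0.5 mM TCEP and 0.05% Tween 20. A Cy5-type thalidomide-linked fluorescent probe was then added. The FP signal was normalized to the DMSO control to derive IC50.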

GSPT1 = GSPT1 (Homo sapiens, UniProt P15170+Q96SW2); assay: Western blot selectivity assay in MM1S cells: GSPT1; format: cell-based; set-up: endogenous in cells; host or cells: MM1S (ATCC CRL-2974); details: MM1S cells, 0.3, 3 and 30 μM, 6 hours
Procedure: (§1) MM1S cells were purchased from ATCC (cat. Number CRL-2974), sub-cultured in 90% RPMI 1640 with 10% FBS, supplemented with 1×P/S and incubated at 37° C., 5% CO2. Compounds were stored as 10 mM DMSO stock. For the assay, MM1S cells (3 million cells/well) were plated in 6-well plates and incubated over night. Cells were treated with respective compounds using a serial dilution: 0.3 μM, 3 μM and 30 μM as well as a vehicle only (DMSO) control for 6 hours. Media with suspension cells was subsequently transferred to 15 mL conical tubes, wells rinsed twice with ice-cold PBS and merged with cell suspension in respective 15 mL conical tube. Cells were spinned down, supernatant aspirated, pellets resuspended in ice-cold PBS and transferred to microtubes. Cells were spinned down, supernatant aspirated and pellets resuspended in 120 μL RIPA lysis buffer supplemented with protease and phosphatase inhibitors. Cell lysates were incubated on ice for 20 minutes followed by centrifugation at >20,000×g for 5 min. Supernatants were transferred to fresh microtubes and stored at −80° C. Total protein concentration was determined using a BCA assay with a BSA standard curve and concentration of all samples was adjusted to 1 mg/mL. 25 μL 4×LDS sample buffer supplemented with 100 mM DTT was added to 75 μL sample. Samples were centrifuged (8,000×g, 1 min) and incubated at 95° C. for 5 min followed by another centrifugation step (8,000×g, 1 min). 20 μL of each sample was loaded on a 4-12% gel alongside a protein molecular weight marker. Gels were run in the presence of MOPS buffer at 80 Volts for 30 min, followed by 120 Volts for 1.5 h and proteins subsequently transferred onto nitrocellulose membranes at 20 Volts for 7 min using an iBlot2 Gel Transfer Device. Membranes were then cut horizontally into two pieces, covering 80-50 kDa and 50-25 kDa. Blocking the membranes was performed by gently shaking in 5% (w/v) skim milk in TSB-T for 1 hr at room temperature. All primary antibodies were used at a 1/1000 in 5% (w/v) BSA dissolved in TBST and incubated with membranes over night at 4° C. Anti-IKZF1 (Ikaros; D6N9Y; 14859S), anti-IKZF3 (Aiolos; D1C1E; 15103S) antibodies were purchased from Cell Signalling Technology, anti-ZFP91 antibody from Bethyl laboratories, anti-GSPT1 from Sigma Aldrich (HPA052488) and anti CK1alpha from AbCam (ab206652). After three washes with 1×TBST for 5 min, HRP-coupled secondary antibodies diluted in 5% (w/v) BSA/TBST (Goat Anti-Rb IgG, dil. 1/10,000; Goat Anti-Mouse IgG, dil. 1/5000) were added for 1 hr at room temperature. After three washes with 1×TBST (5 minutes each), membranes were incubated with ECL reagent for 1 min at room temperature. Chemiluminescence signals were then detected using a LAS-4000 system with default settings and signals quantified using Image Studio Lite software (version 5.2). Membrane parts previously incubated with antibody against CK1alpha were stripped off antibodies by incubating with stripping buffer for 30 minutes followed by three washed with TBST (5 min each), blocking with 5% (w/v) skim milk for 1 hr, and incubation with primary antibody against GAPDH overnight at 4° C. Subsequent washes, incubation with secondary antibody and signal acquisition were performed as described above.

IKZF1 (Ikaros) = target: T2, IKZF1 (Ikaros) (Homo sapiens, UniProt Q13422); assay: Western blot selectivity assay in MM1S cells: IKZF1; format: cell-based; set-up: key: A represents a no degradation observed at 30 μM; B represents trace degradation at 30 μM (below 20%); C represents weak degradation at 30 μM (below 50%); D represents degradation at 30 μM (>90%); E represents degradation at 3 μM (>90%); F represents degradation at 0.3 μM (>90%); details: MM1S cells, 0.3, 3 and 30 μM, 6 hours
T2 construct: endogenous in cells; host or cells: MM1S (ATCC CRL-2974)
Procedure: as §1

IKZF3 (Aiolos) = target: T3, IKZF3 (Aiolos) (Homo sapiens, UniProt Q9UKT9); assay: Western blot selectivity assay in MM1S cells: IKZF3; format: cell-based; set-up: key: A represents a no degradation observed at 30 μM; B represents trace degradation at 30 μM (below 20%); C represents weak degradation at 30 μM (below 50%); D represents degradation at 30 μM (>90%); E represents degradation at 3 μM (>90%); F represents degradation at 0.3 μM (>90%); details: MM1S cells, 0.3, 3 and 30 μM, 6 hours
T3 construct: endogenous in cells; host or cells: MM1S (ATCC CRL-2974)
Procedure: as §1, with “After three washes with 1×TBST (5 minutes each), membranes were incubated with ECL reagent for 1 min at room temperature.” left out, “Membrane parts previously incubated with antibody against CK1alpha were stripped off antibodies by incubating with stripping buffer for 30 minutes followed by three washed with TBST (5 min each), blocking with 5% (w/v) skim milk for 1 hr, and incubation with primary antibody against GAPDH overnight at 4° C. Subsequent washes, incubation with secondary antibody and signal acquisition were performed as described above.” left out

CK1alpha = target: T4, CK1alpha (Homo sapiens, UniProt P48729); assay: Western blot selectivity assay in MM1S cells: CK1alpha; format: cell-based; set-up: key: A represents a no degradation observed at 30 μM; B represents trace degradation at 30 μM (below 20%); C represents weak degradation at 30 μM (below 50%); D represents degradation at 30 μM (>90%); E represents degradation at 3 μM (>90%); F represents degradation at 0.3 μM (>90%); details: MM1S cells, 0.3, 3 and 30 μM, 6 hours
T4 construct: endogenous in cells; host or cells: MM1S (ATCC CRL-2974)
Procedure: (§2) MM1S cells were purchased from ATCC (cat. Number CRL-2974), sub-cultured in 90% RPMI 1640 with 10% FBS, supplemented with 1×P/S and incubated at 37° C., 5% CO2. Compounds were stored as 10 mM DMSO stock. For the assay, MM1S cells (3 million cells/well) were plated in 6-well plates and incubated over night. Cells were treated with respective compounds using a serial dilution: 0.3 μM, 3 μM and 30 μM as well as a vehicle only (DMSO) control for 6 hours. Media with suspension cells was subsequently transferred to 15 mL conical tubes, wells rinsed twice with ice-cold PBS and merged with cell suspension in respective 15 mL conical tube. Cells were spinned down, supernatant aspirated, pellets resuspended in ice-cold PBS and transferred to microtubes. Cells were spinned down, supernatant aspirated and pellets resuspended in 120 μL RIPA lysis buffer supplemented with protease and phosphatase inhibitors. Cell lysates were incubated on ice for 20 minutes followed by centrifugation at >20,000×g for 5 min. Supernatants were transferred to fresh microtubes and stored at −80° C. Total protein concentration was determined using a BCA assay with a BSA standard curve and concentration of all samples was adjusted to 1 mg/mL. […] Chemiluminescence signals were then detected using a LAS-4000 system with default settings and signals quantified using Image Studio Lite software (version 5.2). […]

ZFP91 = target: T5, ZFP91 (Homo sapiens, UniProt Q96JP5); assay: Western blot selectivity assay in MM1S cells: ZFP91; format: cell-based; set-up: key: A represents a no degradation observed at 30 μM; B represents trace degradation at 30 μM (below 20%); C represents weak degradation at 30 μM (below 50%); D represents degradation at 30 μM (>90%); E represents degradation at 3 μM (>90%); F represents degradation at 0.3 μM (>90%); details: MM1S cells, 0.3, 3 and 30 μM, 6 hours
T5 construct: endogenous in cells; host or cells: MM1S (ATCC CRL-2974)
Procedure: as §2

[2] = bounds stated in the text lists b2059-b2061, read-out: IC50 value
[3] = cereblon binding, class code, read-out: rFP IC50

Sequence of GSPT1 (P15170 whole entry): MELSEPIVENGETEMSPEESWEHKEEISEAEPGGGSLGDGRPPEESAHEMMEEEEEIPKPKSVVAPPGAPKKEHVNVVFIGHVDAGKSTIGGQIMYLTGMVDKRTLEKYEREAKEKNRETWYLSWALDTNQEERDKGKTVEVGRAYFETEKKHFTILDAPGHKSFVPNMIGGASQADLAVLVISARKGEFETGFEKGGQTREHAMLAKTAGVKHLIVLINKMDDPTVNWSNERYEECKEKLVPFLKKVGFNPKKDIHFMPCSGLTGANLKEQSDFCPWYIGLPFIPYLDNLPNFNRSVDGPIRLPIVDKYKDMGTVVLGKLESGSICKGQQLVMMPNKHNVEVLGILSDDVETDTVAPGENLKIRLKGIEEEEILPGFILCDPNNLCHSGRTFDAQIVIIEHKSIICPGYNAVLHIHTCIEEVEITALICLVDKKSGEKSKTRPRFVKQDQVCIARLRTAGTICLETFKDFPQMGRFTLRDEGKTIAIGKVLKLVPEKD
Sequence of GSPT1 (Q96SW2 whole entry): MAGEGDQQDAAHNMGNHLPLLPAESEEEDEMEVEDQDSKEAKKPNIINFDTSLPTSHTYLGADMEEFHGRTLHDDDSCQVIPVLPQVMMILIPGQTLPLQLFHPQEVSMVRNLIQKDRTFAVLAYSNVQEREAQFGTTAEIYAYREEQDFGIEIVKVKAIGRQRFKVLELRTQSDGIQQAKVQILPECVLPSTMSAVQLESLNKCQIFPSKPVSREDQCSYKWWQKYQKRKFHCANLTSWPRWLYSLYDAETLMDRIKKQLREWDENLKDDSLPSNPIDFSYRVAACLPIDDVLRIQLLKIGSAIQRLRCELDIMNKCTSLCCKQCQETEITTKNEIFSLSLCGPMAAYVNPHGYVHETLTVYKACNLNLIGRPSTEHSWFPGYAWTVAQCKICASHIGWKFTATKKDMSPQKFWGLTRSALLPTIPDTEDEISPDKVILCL
Sequence of GSPT1 (Q16531 2-1140 partner limits assumed): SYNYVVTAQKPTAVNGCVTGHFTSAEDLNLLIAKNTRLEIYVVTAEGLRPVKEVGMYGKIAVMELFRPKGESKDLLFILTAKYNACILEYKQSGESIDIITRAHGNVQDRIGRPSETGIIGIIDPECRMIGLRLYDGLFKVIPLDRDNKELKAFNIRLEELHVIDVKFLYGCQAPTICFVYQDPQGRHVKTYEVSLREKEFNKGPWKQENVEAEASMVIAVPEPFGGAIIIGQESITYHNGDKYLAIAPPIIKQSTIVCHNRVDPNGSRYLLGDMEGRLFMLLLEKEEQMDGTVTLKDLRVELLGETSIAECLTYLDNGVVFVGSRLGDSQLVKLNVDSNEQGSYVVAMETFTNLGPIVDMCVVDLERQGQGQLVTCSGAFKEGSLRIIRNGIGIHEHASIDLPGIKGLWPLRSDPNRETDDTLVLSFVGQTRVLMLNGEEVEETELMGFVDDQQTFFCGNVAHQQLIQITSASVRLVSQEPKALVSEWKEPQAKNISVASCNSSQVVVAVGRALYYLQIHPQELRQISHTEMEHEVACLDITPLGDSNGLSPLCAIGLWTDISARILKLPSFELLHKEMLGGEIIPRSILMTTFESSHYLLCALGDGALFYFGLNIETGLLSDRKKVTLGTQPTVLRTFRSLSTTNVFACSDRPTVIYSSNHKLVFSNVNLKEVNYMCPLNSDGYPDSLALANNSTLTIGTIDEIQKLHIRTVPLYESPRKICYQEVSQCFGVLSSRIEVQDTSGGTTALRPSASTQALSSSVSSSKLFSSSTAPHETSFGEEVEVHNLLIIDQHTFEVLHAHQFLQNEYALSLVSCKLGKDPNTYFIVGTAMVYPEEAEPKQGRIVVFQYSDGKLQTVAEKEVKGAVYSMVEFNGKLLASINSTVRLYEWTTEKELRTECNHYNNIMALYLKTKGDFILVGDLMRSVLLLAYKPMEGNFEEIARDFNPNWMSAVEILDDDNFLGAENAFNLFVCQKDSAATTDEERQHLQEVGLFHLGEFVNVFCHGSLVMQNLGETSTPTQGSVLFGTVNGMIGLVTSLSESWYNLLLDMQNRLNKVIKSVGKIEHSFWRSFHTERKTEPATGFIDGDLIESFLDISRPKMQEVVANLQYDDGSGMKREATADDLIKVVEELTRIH
T2 sequence (Q96SW2 whole entry partner): as the sequence (Q96SW2 whole entry) above
T2 sequence (Q16531 2-1140 partner limits assumed): as the sequence (Q16531 2-1140 partner limits assumed) above
T2 sequence (Q13422 whole entry): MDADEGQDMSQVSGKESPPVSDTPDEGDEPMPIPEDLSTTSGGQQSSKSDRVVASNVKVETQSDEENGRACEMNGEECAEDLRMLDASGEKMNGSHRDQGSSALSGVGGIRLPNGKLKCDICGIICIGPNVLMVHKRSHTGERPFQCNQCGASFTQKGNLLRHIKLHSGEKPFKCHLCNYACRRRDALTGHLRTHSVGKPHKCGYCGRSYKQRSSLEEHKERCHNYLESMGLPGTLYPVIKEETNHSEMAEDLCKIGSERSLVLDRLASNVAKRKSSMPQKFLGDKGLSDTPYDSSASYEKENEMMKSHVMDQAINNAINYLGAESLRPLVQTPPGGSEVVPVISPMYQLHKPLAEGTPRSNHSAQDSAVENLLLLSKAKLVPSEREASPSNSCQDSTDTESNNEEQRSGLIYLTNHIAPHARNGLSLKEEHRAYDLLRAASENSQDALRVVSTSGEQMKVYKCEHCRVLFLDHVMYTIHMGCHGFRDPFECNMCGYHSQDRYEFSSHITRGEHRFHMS
T1 sequence (Q96SW2 whole entry): as the sequence (Q96SW2 whole entry) above
T4 sequence (Q96SW2 whole entry partner): as the sequence (Q96SW2 whole entry) above
T4 sequence (Q16531 2-1140 partner limits assumed): as the sequence (Q16531 2-1140 partner limits assumed) above
T4 sequence (P48729 whole entry): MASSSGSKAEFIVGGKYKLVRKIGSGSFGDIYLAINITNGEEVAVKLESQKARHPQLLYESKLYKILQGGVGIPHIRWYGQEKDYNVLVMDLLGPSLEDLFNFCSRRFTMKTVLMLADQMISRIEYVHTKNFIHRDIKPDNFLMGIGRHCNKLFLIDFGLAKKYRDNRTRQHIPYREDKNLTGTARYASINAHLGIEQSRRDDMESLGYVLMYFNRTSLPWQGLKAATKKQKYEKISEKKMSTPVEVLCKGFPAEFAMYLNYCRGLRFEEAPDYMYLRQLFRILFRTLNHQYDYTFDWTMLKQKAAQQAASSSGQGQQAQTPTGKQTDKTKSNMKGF
T3 sequence (Q96SW2 whole entry partner): as the sequence (Q96SW2 whole entry) above
T3 sequence (Q16531 2-1140 partner limits assumed): as the sequence (Q16531 2-1140 partner limits assumed) above
T3 sequence (Q9UKT9 whole entry): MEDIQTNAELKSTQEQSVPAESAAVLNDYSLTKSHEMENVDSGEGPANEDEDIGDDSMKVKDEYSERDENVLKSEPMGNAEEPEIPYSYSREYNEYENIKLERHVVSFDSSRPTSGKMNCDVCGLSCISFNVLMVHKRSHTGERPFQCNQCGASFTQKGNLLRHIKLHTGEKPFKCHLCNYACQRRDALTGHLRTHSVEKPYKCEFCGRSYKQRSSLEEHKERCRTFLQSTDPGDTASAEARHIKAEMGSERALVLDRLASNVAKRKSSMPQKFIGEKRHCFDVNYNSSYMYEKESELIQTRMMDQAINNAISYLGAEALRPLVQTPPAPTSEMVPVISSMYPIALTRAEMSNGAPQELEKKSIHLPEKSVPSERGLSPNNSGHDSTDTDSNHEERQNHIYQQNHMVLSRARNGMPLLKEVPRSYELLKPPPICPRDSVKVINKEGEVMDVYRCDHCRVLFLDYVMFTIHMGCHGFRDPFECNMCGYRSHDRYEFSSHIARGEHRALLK
T5 sequence (Q96SW2 whole entry partner): as the sequence (Q96SW2 whole entry) above
T5 sequence (Q16531 2-1140 partner limits assumed): as the sequence (Q16531 2-1140 partner limits assumed) above
T5 sequence (Q96JP5 2-570 limits assumed): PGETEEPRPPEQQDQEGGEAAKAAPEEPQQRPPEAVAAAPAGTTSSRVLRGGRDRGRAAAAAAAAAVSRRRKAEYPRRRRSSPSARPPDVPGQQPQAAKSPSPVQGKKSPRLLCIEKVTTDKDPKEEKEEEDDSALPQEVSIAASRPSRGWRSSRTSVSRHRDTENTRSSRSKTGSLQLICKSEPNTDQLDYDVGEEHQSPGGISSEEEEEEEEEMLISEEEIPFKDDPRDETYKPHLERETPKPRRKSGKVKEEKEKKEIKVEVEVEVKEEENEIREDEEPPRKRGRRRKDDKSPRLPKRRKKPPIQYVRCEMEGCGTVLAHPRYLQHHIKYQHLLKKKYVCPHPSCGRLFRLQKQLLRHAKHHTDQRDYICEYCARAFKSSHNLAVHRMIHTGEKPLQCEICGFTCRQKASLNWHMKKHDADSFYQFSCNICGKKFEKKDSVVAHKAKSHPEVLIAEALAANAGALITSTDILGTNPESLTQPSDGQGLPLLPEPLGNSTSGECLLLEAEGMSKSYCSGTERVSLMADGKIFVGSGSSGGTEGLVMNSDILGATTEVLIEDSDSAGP

Row | IC50 [1, 2] [nM] | IC50 [1, 3] [nM] | IKZF1 degradation (IKZF1 (Ikaros)) | IKZF3 degradation (IKZF3 (Aiolos)) | CK1alpha degradation (CK1alpha) | ZFP91 degradation (ZFP91) | SMILES | GSPT1 degradation (GSPT1)
1 | < 1700 | 1100 to 1700 | A | A |  |  | CC(C)(C)c1ccc(NC(=O)OCc2ccc3c(c2)C(=O)N(C2CCC(=O)NC2=O)C3)cc1 (stereo not drawn) [Compound 47] | F (F represents degradation at 0.3 μM (>90%))
2 | < 1700 | 500 to 1100 | A |  | A |  | Cc1ncc(NC(=O)OCc2ccc3c(c2)C(=O)N(C2CCC(=O)NC2=O)C3)cc1Cl (stereo not drawn) [Compound 6] | F (F represents degradation at 0.3 μM (>90%))
3 | < 1700 | 1100 to 1700 | A |  |  | A | COc1cc(C)c(Cl)cc1NC(=O)OCc1ccc2c(c1)C(=O)N(C1CCC(=O)NC1=O)C2 (stereo not drawn) [Compound 1] | F (F represents degradation at 0.3 μM (>90%))
